PubChem BioAssay AID330 (DTP/NCI, 2004)
Values joined by “and” are separate entries in the source; they are usually repeats but may differ in a detail not shown here. Equal entries are not always repeated. Inconclusive results and toxic doses are left out. Rule for the calls: active = survival T/C of 150% or more; inactive = T/C below 125% in these data.

System: P388 leukemia ip, CD2F1 mice, survival T/C
Experiment: NCI In Vivo Anticancer Drug Screen. Data for tumor model P388 Leukemia (intraperitoneal) in CD2F1 (CDF1) mice
Conditions: endpoint: median survival time, higher = longer survival
How it was run: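 Mice carrying the transplanted tumor received test compound or vehicle. Survival was recorded in each group, and the value is the treated-group measurement divided by that of the vehicle-treated control group.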

[1] = dose: 50.0 mg/kg/injection, schedule: Q01DX005 (ip), vehicle: saline with Tween-80
[2] = dose: 100.0 mg/kg/injection, schedule: Q01DX005 (ip), vehicle: saline with Tween-80
[3] = dose: 200.0 mg/kg/injection, schedule: Q01DX005 (ip), vehicle: saline with Tween-80
[4] = dose: 25.0 mg/kg/injection, schedule: Q01DX005 (ip), vehicle: Klucel (hydroxypropylcellulose) (HPC)
[5] = dose: 50.0 mg/kg/injection, schedule: Q01DX005 (ip), vehicle: Klucel (hydroxypropylcellulose) (HPC)
[6] = dose: 50.0 mg/kg/injection, schedule: Q01DX009 (ip), vehicle: saline
[7] = dose: 100.0 mg/kg/injection, schedule: Q01DX009 (ip), vehicle: saline
[8] = dose: 200.0 mg/kg/injection, schedule: Q01DX009 (ip), vehicle: saline
[9] = dose: 50.0 mg/kg/injection, schedule: Q01DX009 (ip), vehicle: saline with Tween-80
[10] = dose: 100.0 mg/kg/injection, schedule: Q01DX009 (ip), vehicle: saline with Tween-80
[11] = dose: 200.0 mg/kg/injection, schedule: Q01DX009 (ip), vehicle: saline with Tween-80
[12] = dose: 60.0 mg/kg/injection, schedule: Q01DX005 (ip), vehicle: saline with Tween-80
[13] = dose: 120.0 mg/kg/injection, schedule: Q01DX005 (ip), vehicle: saline with Tween-80
[14] = dose: 240.0 mg/kg/injection, schedule: Q01DX005 (ip), vehicle: saline with Tween-80
[15] = dose: 100.0 mg/kg/injection, schedule: Q01DX005 (ip), vehicle: Klucel (hydroxypropylcellulose) (HPC)
[16] = dose: 200.0 mg/kg/injection, schedule: Q01DX005 (ip), vehicle: Klucel (hydroxypropylcellulose) (HPC)
[17] = dose: 100.0 mg/kg/injection, schedule: Q01DX001 (ip), vehicle: Klucel (hydroxypropylcellulose) (HPC)
[18] = dose: 200.0 mg/kg/injection, schedule: Q01DX001 (ip), vehicle: Klucel (hydroxypropylcellulose) (HPC)
[19] = dose: 12.5 mg/kg/injection, schedule: Q01DX005 (ip), vehicle: saline with Tween-80
[20] = dose: 25.0 mg/kg/injection, schedule: Q01DX005 (ip), vehicle: saline with Tween-80

Measured: T/C

O=C(N1C2c3ccsc3[C@@H](O)C21)C(F)(F)F (stereo not given in full)
inactive: [1] 88 % of control | [2] 95 % of control | [3] 100 % of control

C[n+]1ccc(I)c2ccc(Cl)cc21
inactive: dose: 12.5 mg/kg/injection, schedule: Q01DX009 (ip), vehicle: Klucel (hydroxypropylcellulose) (HPC) 101 % of control | dose: 25.0 mg/kg/injection, schedule: Q01DX009 (ip), vehicle: Klucel (hydroxypropylcellulose) (HPC) 104 % of control | dose: 50.0 mg/kg/injection, schedule: Q01DX009 (ip), vehicle: Klucel (hydroxypropylcellulose) (HPC) 109 % of control

Cc1cc(=O)[nH]c2ccc3ccccc3c12
inactive: dose: 12.5 mg/kg/injection, schedule: Q01DX005 (ip), vehicle: Klucel (hydroxypropylcellulose) (HPC) 91 % of control | [4] 91 % of control | [5] 86 % of control

O=P(O)(O)OC1C(OP(=O)(O)O)C(OP(=O)(O)O)C(OP(=O)(O)O)C(OP(=O)(O)O)C1OP(=O)(O)O (stereo not given)
inactive: [6] 94 % of control | [7] 94 % of control | [8] 102 % of control

CC(=O)c1c(-c2ccc(Cl)cc2)c(-c2ccc(Cl)cc2)nn(C(C)CO)c1=O (stereo not given)
inactive: [1] 103 % of control | [2] 100 % of control | [3] 97 % of control

Cc1cc(Cl)ccc1N=Cc1ccc(OCc2ccccc2)cc1
inactive: [9] 92 % of control | [10] 90 % of control | [11] 88 % of control

COc1ccc(/C=C2\C(=O)N(Cc3ccco3)SC2=S)c(OC)c1OC
inactive: [9] 90 % of control | [10] 90 % of control | [11] 106 % of control

CCOC(=O)COc1ccc(NC(C)=O)cc1
inactive: [12] 103 % of control | [13] 103 % of control | [14] 95 % of control

CCOC(CN=Cc1cc(C)c2sc3ccccc3c2c1C)OCC
inactive: dose: 25.0 mg/kg/injection, schedule: Q01DX009 (ip), vehicle: saline with Tween-80 110 % of control | [9] 103 % of control | [10] 108 % of control | [11] 111 % of control

CCN(CC)CCOCCC1(C)Oc2ccc(Cl)cc2O1 (stereo not given)
inactive: [6] 93 % of control | [7] 93 % of control

CCCCCOc1ccc(C(=O)Oc2ccc(N=Nc3nccs3)cc2)cc1
inactive: [1] 98 % of control | [2] 101 % of control | [3] 96 % of control

O=C(CN1CCCCC1)Nc1ccc2c(c1)C(=O)c1ccc(NC(=O)CN3CCCCC3)cc1C2=O
inactive: [5] 90 % of control and 97 % of control | dose: 50.0 mg/kg/injection, schedule: Q01DX005 (ip), vehicle: acid diluted with saline 100 % of control | [15] 90 % of control and 94 % of control | dose: 100.0 mg/kg/injection, schedule: Q01DX005 (ip), vehicle: acid diluted with saline 106 % of control | [16] 90 % of control and 95 % of control | dose: 200.0 mg/kg/injection, schedule: Q01DX005 (ip), vehicle: acid diluted with saline 108 % of control

COC(C(OC)N1CCOCC1)N1CCOCC1 (stereo not given)
inactive: [9] 100 % of control | [10] 104 % of control | [11] 113 % of control

CCC(CN1N=C(c2ccc(Cl)cc2)CCC1=O)C(=O)CCC(=O)O (stereo not given)
inactive: [5] 104 % of control | [15] 105 % of control | [16] 113 % of control

CN(C)CN1C(=O)S/C(=C2\C(=O)N(C)c3ccc(Br)cc32)C1=O
inactive: [17] 101 % of control | [18] 95 % of control | dose: 400.0 mg/kg/injection, schedule: Q01DX001 (ip), vehicle: Klucel (hydroxypropylcellulose) (HPC) 97 % of control

COc1ccc(/C=C/C(C)=N/NC(N)=S)cc1OC
inactive: [19] 104 % of control | [20] 106 % of control | [1] 105 % of control and 112 % of control | [2] 93 % of control

[Cl][Mn][Cl]
inactive: dose: 0.25 mg/kg/injection, schedule: Q01DX009 (ip), vehicle: saline 99 % of control | dose: 0.5 mg/kg/injection, schedule: Q01DX009 (ip), vehicle: saline 90 % of control and 97 % of control | dose: 1.0 mg/kg/injection, schedule: Q01DX009 (ip), vehicle: saline 100 % of control | dose: 2.0 mg/kg/injection, schedule: Q01DX009 (ip), vehicle: saline 88 % of control and 94 % of control | dose: 4.0 mg/kg/injection, schedule: Q01DX009 (ip), vehicle: suspension in saline 119 % of control | dose: 8.0 mg/kg/injection, schedule: Q01DX009 (ip), vehicle: saline 90 % of control | dose: 8.0 mg/kg/injection, schedule: Q01DX009 (ip), vehicle: suspension in saline 97 % of control | dose: 16.0 mg/kg/injection, schedule: Q01DX009 (ip), vehicle: saline 100 % of control | dose: 16.0 mg/kg/injection, schedule: Q01DX009 (ip), vehicle: suspension in saline 116 % of control | dose: 32.0 mg/kg/injection, schedule: Q01DX009 (ip), vehicle: suspension in saline 119 % of control | dose: 64.0 mg/kg/injection, schedule: Q01DX009 (ip), vehicle: saline 100 % of control and 106 % of control | dose: 64.0 mg/kg/injection, schedule: Q01DX009 (ip), vehicle: suspension in saline 97 % of control

COc1ccc(C(=O)CCc2cccc(NC(=O)CCCl)c2)cc1
inactive: [12] 105 % of control | [13] 94 % of control | [14] 92 % of control

Cc1cc(C)nc(NS(=O)(=O)c2ccc(N=NC3=C(O)C(c4ccccc4)N(c4ccccc4)C3=O)cc2)n1 (stereo not given)
inactive: dose: 60.0 mg/kg/injection, schedule: Q01DX005 (ip), vehicle: saline 93 % of control | dose: 120.0 mg/kg/injection, schedule: Q01DX005 (ip), vehicle: saline 86 % of control

COc1cc(/C=C\Cc2cc3c(cc2OC(C)=O)OCO3)cc(OC)c1OC
inactive: [12] 91 % of control | [13] 91 % of control | [14] 90 % of control

Cc1ccc(O)c(C2CC(C#N)CCN2C)c1 (stereo not given)
inactive: [12] 98 % of control | [13] 100 % of control | [14] 105 % of control

O=C(O)C1CCN1 (stereo not given)
inactive: [7] 93 % of control | [8] 86 % of control | dose: 300.0 mg/kg/injection, schedule: Q01DX009 (ip), vehicle: saline 86 % of control

COc1ccc(C(c2c(O)c3ccccc3oc2=O)c2c(O)c3ccccc3oc2=O)cc1
inactive: dose: 15.0 mg/kg/injection, schedule: Q01DX005 (ip), vehicle: saline with Tween-80 98 % of control | dose: 30.0 mg/kg/injection, schedule: Q01DX005 (ip), vehicle: saline with Tween-80 98 % of control | [12] 100 % of control and 98 % of control

CSc1nc2c(nc(N)n2C2OC(COC(C)=O)C(OC(C)=O)C(OC(C)=O)C2OC(C)=O)c(=O)n1C (stereo not given)
inactive: [13] 92 % of control | [14] 96 % of control

CCOC(=O)Cc1c[nH]c2ccc(N(CCO)CCO)cc12
inactive: [4] 101 % of control | [5] 102 % of control | [15] 102 % of control | [16] 98 % of control

CCC1(CCC(=O)OC)CCC[N+]2=C1c1[nH]c3ccc(Br)cc3c1CC2 (stereo not given)
inactive: dose: 6.25 mg/kg/injection, schedule: Q01DX005 (ip), vehicle: saline with Tween-80 97 % of control | [19] 100 % of control | [20] 94 % of control | dose: 50.0 mg/kg/injection, schedule: Q01DX005 (ip), vehicle: saline 86 % of control

COC(=O)C1C(=O)C2OC1C1OC(C)(C)OC21 (stereo not given)
inactive: [5] 94 % of control | [15] 103 % of control | [16] 104 % of control

O=C(C(Oc1ccc(Cl)cc1)n1cncn1)N1CCOC1C1CCCCC1 (stereo not given)
inactive: dose: 50.0 mg/kg/injection, schedule: Q01DX001 (ip), vehicle: Klucel (hydroxypropylcellulose) (HPC) 103 % of control | [17] 100 % of control | [18] 100 % of control

O=C(O)CNc1ccccc1.[Cu+2]
inactive: dose: 6.25 mg/kg/injection, schedule: Q01DX001 (ip), vehicle: Klucel (hydroxypropylcellulose) (HPC) 98 % of control | dose: 12.5 mg/kg/injection, schedule: Q01DX001 (ip), vehicle: Klucel (hydroxypropylcellulose) (HPC) 98 % of control | dose: 25.0 mg/kg/injection, schedule: Q01DX001 (ip), vehicle: Klucel (hydroxypropylcellulose) (HPC) 101 % of control and 112 % of control
